The values below come from ChEMBL document CHEMBL1148423, “Estrogen receptor ligands. Part 5: The SAR of dihydrobenzoxathiins containing modified basic side chains” (Bioorg Med Chem Lett, 2004).

pIC50: −log10 of the molar value.

One test concerns the target T1, Estrogen receptor (Homo sapiens, UniProt P03372).
T1 sequence (P03372 whole entry): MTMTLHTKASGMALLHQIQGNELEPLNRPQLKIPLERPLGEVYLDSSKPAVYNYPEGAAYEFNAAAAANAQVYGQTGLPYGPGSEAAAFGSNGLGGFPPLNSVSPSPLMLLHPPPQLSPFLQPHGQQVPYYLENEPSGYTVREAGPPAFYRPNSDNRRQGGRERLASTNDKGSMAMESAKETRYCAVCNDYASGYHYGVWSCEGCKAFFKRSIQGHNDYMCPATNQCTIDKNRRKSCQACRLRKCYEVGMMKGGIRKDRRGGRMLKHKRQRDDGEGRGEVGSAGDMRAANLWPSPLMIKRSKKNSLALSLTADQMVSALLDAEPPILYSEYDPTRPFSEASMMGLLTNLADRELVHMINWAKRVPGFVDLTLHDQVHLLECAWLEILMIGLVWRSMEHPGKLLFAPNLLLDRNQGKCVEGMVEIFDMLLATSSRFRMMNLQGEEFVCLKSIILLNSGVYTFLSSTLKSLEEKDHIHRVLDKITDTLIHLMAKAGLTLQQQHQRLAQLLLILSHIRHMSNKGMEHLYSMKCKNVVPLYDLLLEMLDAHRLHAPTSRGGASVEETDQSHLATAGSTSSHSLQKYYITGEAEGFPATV

Another test has as its target Estrogen receptor beta (Homo sapiens, UniProt Q92731).
The subject of the next test is MCF7. The test is described as follows: Inhibition of MCF-7 cancer cell proliferation. Format: functional, cell-based. To be noted: Homo sapiens.

Estrogen receptor beta, sequence (Q92731 whole entry): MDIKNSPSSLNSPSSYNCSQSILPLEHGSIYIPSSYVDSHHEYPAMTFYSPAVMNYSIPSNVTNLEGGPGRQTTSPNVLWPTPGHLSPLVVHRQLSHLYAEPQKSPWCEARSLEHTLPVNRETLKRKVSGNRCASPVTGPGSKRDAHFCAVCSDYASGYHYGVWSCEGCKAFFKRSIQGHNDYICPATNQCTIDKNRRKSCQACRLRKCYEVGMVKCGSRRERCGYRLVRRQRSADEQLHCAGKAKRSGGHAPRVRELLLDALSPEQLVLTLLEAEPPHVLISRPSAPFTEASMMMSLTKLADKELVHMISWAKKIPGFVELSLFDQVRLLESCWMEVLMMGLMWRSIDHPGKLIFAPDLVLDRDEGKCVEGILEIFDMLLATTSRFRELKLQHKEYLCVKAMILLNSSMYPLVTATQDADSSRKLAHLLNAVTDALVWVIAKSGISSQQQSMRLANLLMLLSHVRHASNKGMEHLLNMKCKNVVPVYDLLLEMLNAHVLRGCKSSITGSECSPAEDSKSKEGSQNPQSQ
Description for Estrogen receptor beta: Binding affinity for human estrogen receptor beta

For orientation: pIC50 means the IC50 on a negative log10 scale, so that one unit is a factor of ten. Low readings indicate a large IC50, high ones a small IC50. Turning to `CCN1CCN(c2ccc([C@@H]3Oc4ccc(O)cc4S[C@@H]3c3ccc(O)cc3)cc2)CC1`, the pIC50 against Estrogen receptor was 9.00; on Estrogen receptor beta, 7.57; in the test with MCF7 it was 8.85.
For the compound `CN1CCCN(c2ccc([C@@H]3Oc4ccc(O)cc4S[C@@H]3c3ccc(O)cc3)cc2)CC1`, the pIC50 against Estrogen receptor was 8.44; against Estrogen receptor beta, 6.44; with MCF7, 7.54.
For the compound `CN1CCN(c2ccc([C@@H]3Oc4ccc(O)cc4S[C@@H]3c3ccc(O)cc3)cc2)CC1`, the negative logarithm of the IC50 (pIC50) against Estrogen receptor was 9.00; against Estrogen receptor beta it was 7.23; with MCF7, 8.47.
Consider `Oc1ccc([C@H]2Sc3cc(O)ccc3O[C@H]2CCCN2CCCCC2)cc1`, for which the pIC50 on Estrogen receptor is 9.15; at Estrogen receptor beta it was 7.57; with MCF7, 8.92.
In the case of `Oc1ccc([C@H]2Sc3cc(O)ccc3O[C@H]2c2ccc(COCCN3CCCCC3)cc2)cc1`, the values for the negative-log IC50 (pIC50) at Estrogen receptor, at Estrogen receptor beta and in the test with MCF7 were 8.64, 6.59 and 7.84, respectively.
`Oc1ccc([C@H]2Sc3cc(O)ccc3O[C@H]2c2ccc(CCCN3CCCCC3)cc2)cc1`: the values for the pIC50 on Estrogen receptor, at Estrogen receptor beta and in the test on MCF7 were 8.85, 6.73 and 8.17, respectively.
`Oc1ccc([C@H]2Sc3cc(O)ccc3O[C@H]2c2ccc(C3CCNCC3)cc2)cc1`: the negative logarithm of the IC50 (pIC50) is 8.77 against Estrogen receptor, 6.94 against Estrogen receptor beta and 8.72 with MCF7.
The matching figures for `Oc1ccc([C@H]2Sc3cc(O)ccc3O[C@H]2c2ccc(N3CCNCC3)cc2)cc1`: 8.36, 6.73 and 8.55.
On to `Oc1ccc([C@H]2Sc3cc(O)ccc3O[C@H]2c2ccc(C3=CCNCC3)cc2)cc1`, for which the pIC50 on Estrogen receptor is 8.85; against Estrogen receptor beta, 7.51; in the test with MCF7, 9.05.
In the case of `Oc1ccc([C@H]2Sc3cc(O)ccc3O[C@H]2c2ccc(CN3CCCCC3)cc2)cc1`, the pIC50 is 6.81 on Estrogen receptor and 5.36 against Estrogen receptor beta.
For the compound `Oc1ccc([C@H]2Sc3cc(O)ccc3O[C@H]2c2ccc(N3CCCNCC3)cc2)cc1`, the results for the pIC50 against Estrogen receptor, against Estrogen receptor beta and in the test on MCF7 were 8.44, 6.79 and 7.55, respectively.
